Measurements: patent US10118966B2, “Anti-EGFR monoclonal antibody, methods of making, and uses thereof in the treatment of cancer” (Shanghai Biomabs Pharmaceuticals Co., Ltd., priority 2015, dated 2018)
Read-outs that look alike come from different tables or passages of the source.

Tests used:
[1] = test system: metastatic colorectal cancer; assay: CMAB009 Ph2/3 trial; format: in vivo, human
Protocol: 501 patients were identified and randomized in a 2:1 manner to group 1 or group 2. […] Patients in both groups were treated until the disease progressed or the patient reached an unacceptable level of toxicity.
Patients were evaluated for radiologic response in both group 1 and group 2. […] Note the overall response rate (ORR) in Table 6 was determined according to the sum of the rate of CR and PR, and the disease control rate (DCR) was determined according to the sum of the rates of CR, PR, and SD.

[2] = test system: metastatic colorectal cancer; conditions: EPIC, cited from earlier work
[3] = radiologic response, n = 337 / n = 164
[4] = radiologic response, n = 648 / n = 650

In the case of `CCc1c2c(nc3ccc(OC(=O)N4CCC(N5CCCCC5)CC4)cc13)-c1cc3c(c(=O)n1C2)COC(=O)[C@]3(O)CC` [Irinotecan monotherapy, irinotecan], the “Time to disease progression” value ([1]; CMAB009 Ph2/3 trial) is reported as 3.2 months, the “Test drug-related death AE, no. of patients” value ([1]; N = 342 / N = 170) is reported as 0 and the “At least one ADR, %” value ([1]; human, in vivo) is reported as “(74.1%)”. The “At least one ADR, no. of patients” value ([1]; human, in vivo) was 126, the “At least one AE which lead to stop drug treatment, %” value ([1]; human, in vivo) was “(15.9%)” and the “At least one AE which lead to stop drug treatment, no. of patients” value ([1]; human, in vivo) was 27. For the same molecule, the “At least one AE, %” value ([1]; human, in vivo) was “(87.1%)”, the “At least one AE, no. of patients” value ([1]; human, in vivo) was 148 and the “At least one Level III or above ADR, %” value ([1]; human, in vivo) was “(5.9%)”. For the same molecule, the “At least one Level III or above ADR, no. of patients” value ([1]; human, in vivo) was 10, the “At least one Level III or above AE, %” value ([1]; human, in vivo) was “(7.1%)” and the “At least one Level III or above AE, no. of patients” value ([1]; human, in vivo) was 12. The “At least one Level III or above important AE, %” value ([1]; human, in vivo) was “(6.5%)”, the “At least one Level III or above important AE, no. of patients” value ([1]; human, in vivo) was 11 and the “At least one SAE, %” value ([1]; human, in vivo) was “(4.7%)”. The “At least one SAE, no. of patients” value ([1]; human, in vivo) was 8, the “At least one important AE, %” value ([1]; human, in vivo) was “(70.6%)” and the “At least one important AE, no. of patients” value ([1]; human, in vivo) was 120. The “At least one test drug-related SAE, %” value ([1]; human, in vivo) was “(0.6%)”, the “At least one test drug-related SAE, no. of patients” value ([1]; human, in vivo) was 1 and the “Grade 3-4 adverse events: Abdominal pain, no. of patients” value ([1]; human, in vivo) was 0. The “Grade 3-4 adverse events: Acne-like rash, no. of patients” value ([1]; human, in vivo) was 0, the “Grade 3-4 adverse events: Anemia, no. of patients” value ([1]; human, in vivo) was 3 and the “Grade 3-4 adverse events: Anemia, rate in parentheses” value ([1]; human, in vivo) was 1.8. The “Grade 3-4 adverse events: Any, no. of patients” value ([1]; human, in vivo) was 57, the “Grade 3-4 adverse events: Asthenia, no. of patients” value ([1]; human, in vivo) was 6 and the “Grade 3-4 adverse events: Asthenia, rate in parentheses” value ([1]; human, in vivo) was 3.7. For the same molecule, the “Grade 3-4 adverse events: Diarrhea, no. of patients” value ([1]; human, in vivo) was 12, the “Grade 3-4 adverse events: Diarrhea, rate in parentheses” value ([1]; human, in vivo) was 7.3 and the “Grade 3-4 adverse events: Fever, no. of patients” value ([1]; human, in vivo) was 1. The “Grade 3-4 adverse events: Fever, rate in parentheses” value ([1]; human, in vivo) was 0.9, the “Grade 3-4 adverse events: Nausea and vomiting, no. of patients” value ([1]; human, in vivo) was 16 and the “Grade 3-4 adverse events: Nausea and vomiting, rate in parentheses” value ([1]; human, in vivo) was 9.8. The “Grade 3-4 adverse events: Neutropenia, no. of patients” value ([1]; human, in vivo) was 14, the “Grade 3-4 adverse events: Neutropenia, rate in parentheses” value ([1]; human, in vivo) was 8.5 and the “Grade 3-4 adverse events: Stomatitis, no. of patients” value ([1]; human, in vivo) was 0. The “Grade 3-4 adverse events: Thrombocytopenia, no. of patients” value ([1]; human, in vivo) was 0, the “Complete response, no. of patients” value [1, 3] was 1 and the “Complete response, rate in parentheses” value [1, 3] was “(0.6)”. The “Partial response, no. of patients” value [1, 3] was 20, the “Partial response, rate in parentheses” value [1, 3] was “(12.2)” and the “Progressive disease, no. of patients” value [1, 3] was 44. The “Progressive disease, rate in parentheses” value [1, 3] was “(26.8)”, the “Stable disease, no. of patients” value [1, 3] was 86 and the “Stable disease, rate in parentheses” value [1, 3] was “(52.4)”. For the same molecule, the “Unable to evaluate, no. of patients” value [1, 3] was 13, the “Unable to evaluate, rate in parentheses” value [1, 3] was “(7.9)” and the “Overall response rate, no. of patients” value ([1]; sum of CR and PR, n = 337 / n = 164) was 21. The “Disease control rate, no. of patients” value ([1]; sum of CR, PR and SD, n = 337 / n = 164) was 107, the “Overall response rate, rate in parentheses” value ([1]; sum of the rate of CR and PR, n = 337 / n = 164) was “(12.8” and the “Disease control rate, rate in parentheses” value ([1]; sum of the rates of CR, PR, and SD, n = 337 / n = 164) was “(65.2”. The Overall survival [2] was 10.0 months, the “Time to disease progression” value [2] was 2.6 months and the “Disease control rate, no. of patients” value ([2]; n = 648 / n = 650) was 298. For the same molecule, the “Disease control rate, rate in parentheses” value ([2]; n = 648 / n = 650) was “(45.8)”, the “Overall response rate, no. of patients” value ([2]; n = 648 / n = 650) was 27 and the “Overall response rate, rate in parentheses” value ([2]; n = 648 / n = 650) was “(4.2”. The “Complete response, no. of patients” value [2, 4] was 1, the “Complete response, rate in parentheses” value [2, 4] was “(0.2)” and the “Partial response, no. of patients” value [2, 4] was 26. For the same molecule, the “Partial response, rate in parentheses” value [2, 4] was “(4.0)”, the “Progressive disease, no. of patients” value [2, 4] was 243 and the “Progressive disease, rate in parentheses” value [2, 4] was “(37.4)”. For the same molecule, the “Stable disease, no. of patients” value [2, 4] was 271, the “Stable disease, rate in parentheses” value [2, 4] was “(41.7)” and the “Unable to evaluate, no. of patients” value [2, 4] was 72. The “Unable to evaluate, rate in parentheses” value [2, 4] was “(11.1)”.
